The supplement of paper PMC10307832

Legend:
Assay in all cases: relative viability (nuclei count vs DMSO), 5 days (fraction); higher = more cells survive
NCI-H2009 = system: NCI-H2009
Procedure, shortened: (§1)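 Dosing by pin tool came one day after lung cancer cell lines were seeded in 1536-well plates, using either one drug or a fixed anchor-drug dose plus five library-drug doses (not always all listed) in √10 steps. After 5 days, nuclei were counted on 4× images. Relative viability is treated-well nuclei count divided by vehicle-well nuclei count, and values are medians of duplicate plates.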

NCI-H1651 = system: NCI-H1651
Procedure, shortened: as §1

NCI-H647 = system: NCI-H647
Procedure, shortened: as §1

PC-14 = system: PC-14
Procedure, shortened: as §1

NCI-H2170 = system: NCI-H2170
Procedure, shortened: as §1

SK-MES-1 = system: SK-MES-1
Procedure, shortened: as §1

LXF-289 = system: LXF-289
Procedure, shortened: as §1

LK-2 = system: LK-2
Procedure, shortened: as §1

NCI-H441 = system: NCI-H441
Procedure, shortened: as §1

NCI-H2087 = system: NCI-H2087
Procedure, shortened: as §1

CAL-12T = system: CAL-12T
Procedure, shortened: as §1

NCI-H1755 = system: NCI-H1755
Procedure, shortened: as §1

H3255 = system: H3255
Procedure, shortened: as §1

NCI-H322M = system: NCI-H322M
Procedure, shortened: as §1

NCI-H596 = system: NCI-H596
Procedure, shortened: as §1

NCI-H2126 = system: NCI-H2126
Procedure, shortened: as §1

EMC-BAC-2 = system: EMC-BAC-2
Procedure, shortened: as §1

201T = system: 201T
Procedure, shortened: as §1

NCI-H3122 = system: NCI-H3122
Procedure, shortened: as §1

HOP-62 = system: HOP-62
Procedure, shortened: as §1

ABC-1 = system: ABC-1
Procedure, shortened: as §1

NCI-H1734 = system: NCI-H1734
Procedure, shortened: as §1

`O=c1[nH]c2ccccc2n1C1CCN(CCCC(c2ccc(F)cc2)c2ccc(F)cc2)CC1` [Pimozide] + Cc1nc(NC(=O)N2CCC[C@H]2C(N)=O)sc1-c1ccnc(C(C)(C)C(F)(F)F)c1 [Alpelisib] (partner 2 µM) gave a relative viability (NCI-H2009; first compound 0.08 µM) of 1.16, a relative viability (NCI-H2009; first compound 0.253 µM) of 1.15 and a relative viability (NCI-H2009; first compound 0.8 µM) of 1.14. For the same molecule, the relative viability (NCI-H2009; first compound 2.53 µM) was 1.23, the relative viability (NCI-H2009; first compound 8 µM) was 1.05 and the relative viability (NCI-H1651; first compound 0.08 µM) was 0.911. The relative viability (NCI-H1651; first compound 0.253 µM) was 0.945, the relative viability (NCI-H1651; first compound 0.8 µM) was 0.945 and the relative viability (NCI-H1651; first compound 2.53 µM) was 1.04. The relative viability (NCI-H1651; first compound 8 µM) was 0.926, the relative viability (NCI-H647; first compound 0.08 µM) was 1.11 and the relative viability (NCI-H647; first compound 0.253 µM) was 1.31. For the same molecule, the relative viability (NCI-H647; first compound 0.8 µM) was 1.11, the relative viability (NCI-H647; first compound 2.53 µM) was 1 and the relative viability (NCI-H647; first compound 8 µM) was 0.554. It also gave a relative viability (PC-14; first compound 0.08 µM) of 0.606, a relative viability (PC-14; first compound 0.253 µM) of 0.911 and a relative viability (PC-14; first compound 0.8 µM) of 0.928. It also gave a relative viability (PC-14; first compound 2.53 µM) of 1.05, a relative viability (PC-14; first compound 8 µM) of 0.955 and a relative viability (NCI-H2170; first compound 0.08 µM) of 0.753. The relative viability (NCI-H2170; first compound 0.253 µM) was 0.792, the relative viability (NCI-H2170; first compound 0.8 µM) was 0.822 and the relative viability (NCI-H2170; first compound 2.53 µM) was 0.74. For the same molecule, the relative viability (NCI-H2170; first compound 8 µM) was 0.714, the relative viability (SK-MES-1; first compound 0.08 µM) was 0.809 and the relative viability (SK-MES-1; first compound 0.253 µM) was 0.966. For the same molecule, the relative viability (SK-MES-1; first compound 0.8 µM) was 0.874, the relative viability (SK-MES-1; first compound 2.53 µM) was 0.837 and the relative viability (SK-MES-1; first compound 8 µM) was 0.842. For the same molecule, the relative viability (LXF-289; first compound 0.08 µM) was 0.97, the relative viability (LXF-289; first compound 0.253 µM) was 0.955 and the relative viability (LXF-289; first compound 0.8 µM) was 1.01. For the same molecule, the relative viability (LXF-289; first compound 2.53 µM) was 1.02, the relative viability (LXF-289; first compound 8 µM) was 0.945 and the relative viability (LK-2; first compound 0.08 µM) was 1.12. For the same molecule, the relative viability (LK-2; first compound 0.253 µM) was 1.05, the relative viability (LK-2; first compound 0.8 µM) was 1.01 and the relative viability (LK-2; first compound 2.53 µM) was 1.01. For the same molecule, the relative viability (LK-2; first compound 8 µM) was 0.779, the relative viability (NCI-H441; first compound 0.08 µM) was 1.05 and the relative viability (NCI-H441; first compound 0.253 µM) was 0.733. The relative viability (NCI-H441; first compound 0.8 µM) was 0.854, the relative viability (NCI-H441; first compound 2.53 µM) was 0.574 and the relative viability (NCI-H441; first compound 8 µM) was 0.442. It also gave a relative viability (NCI-H2087; first compound 0.08 µM) of 0.847, a relative viability (NCI-H2087; first compound 0.253 µM) of 1.1 and a relative viability (NCI-H2087; first compound 0.8 µM) of 1.01. The relative viability (NCI-H2087; first compound 2.53 µM) was 0.975, the relative viability (NCI-H2087; first compound 8 µM) was 0.89 and the relative viability (CAL-12T; first compound 0.08 µM) was 1.15. The relative viability (CAL-12T; first compound 0.253 µM) was 1.07, the relative viability (CAL-12T; first compound 0.8 µM) was 1.02 and the relative viability (CAL-12T; first compound 2.53 µM) was 1.32. It also gave a relative viability (CAL-12T; first compound 8 µM) of 0.923, a relative viability (NCI-H1755; first compound 0.08 µM) of 0.918 and a relative viability (NCI-H1755; first compound 0.253 µM) of 0.885. It also gave a relative viability (NCI-H1755; first compound 0.8 µM) of 0.87, a relative viability (NCI-H1755; first compound 2.53 µM) of 0.786 and a relative viability (NCI-H1755; first compound 8 µM) of 0.727. The relative viability (H3255; first compound 0.253 µM) was 0.569, the relative viability (H3255; first compound 0.8 µM) was 0.599 and the relative viability (H3255; first compound 2.53 µM) was 0.754. It also gave a relative viability (H3255; first compound 8 µM) of 0.711, a relative viability (NCI-H322M; first compound 0.253 µM) of 0.835 and a relative viability (NCI-H322M; first compound 0.8 µM) of 0.819. It also gave a relative viability (NCI-H322M; first compound 2.53 µM) of 0.695, a relative viability (NCI-H322M; first compound 8 µM) of 0.716 and a relative viability (NCI-H596; first compound 0.08 µM) of 0.481. The relative viability (NCI-H596; first compound 0.253 µM) was 0.476, the relative viability (NCI-H596; first compound 0.8 µM) was 0.374 and the relative viability (NCI-H596; first compound 2.53 µM) was 0.481. The relative viability (NCI-H596; first compound 8 µM) was 0.392, the relative viability (NCI-H2126; first compound 0.08 µM) was 0.756 and the relative viability (NCI-H2126; first compound 0.253 µM) was 0.734. For the same molecule, the relative viability (NCI-H2126; first compound 0.8 µM) was 0.729, the relative viability (NCI-H2126; first compound 2.53 µM) was 0.758 and the relative viability (NCI-H2126; first compound 8 µM) was 0.757. For the same molecule, the relative viability (EMC-BAC-2; first compound 0.08 µM) was 0.653, the relative viability (EMC-BAC-2; first compound 0.253 µM) was 0.703 and the relative viability (EMC-BAC-2; first compound 0.8 µM) was 0.682. The relative viability (EMC-BAC-2; first compound 2.53 µM) was 0.668, the relative viability (EMC-BAC-2; first compound 8 µM) was 0.744 and the relative viability (201T; first compound 0.08 µM) was 0.999. The relative viability (201T; first compound 0.253 µM) was 1.02, the relative viability (201T; first compound 0.8 µM) was 1.05 and the relative viability (201T; first compound 2.53 µM) was 1.01. The relative viability (201T; first compound 8 µM) was 0.921, the relative viability (NCI-H3122; first compound 0.08 µM) was 0.833 and the relative viability (NCI-H3122; first compound 0.253 µM) was 0.784. It also gave a relative viability (NCI-H3122; first compound 0.8 µM) of 0.784, a relative viability (NCI-H3122; first compound 2.53 µM) of 0.784 and a relative viability (NCI-H3122; first compound 8 µM) of 0.795. The relative viability (HOP-62; first compound 0.08 µM) was 1.2, the relative viability (HOP-62; first compound 0.253 µM) was 0.783 and the relative viability (HOP-62; first compound 2.53 µM) was 0.904. For the same molecule, the relative viability (HOP-62; first compound 8 µM) was 0.794, the relative viability (ABC-1; first compound 0.08 µM) was 0.915 and the relative viability (ABC-1; first compound 0.253 µM) was 1.03. The relative viability (ABC-1; first compound 0.8 µM) was 0.834, the relative viability (ABC-1; first compound 2.53 µM) was 0.842 and the relative viability (ABC-1; first compound 8 µM) was 0.675. It also gave a relative viability (NCI-H1734; first compound 0.08 µM) of 0.675, a relative viability (NCI-H1734; first compound 0.253 µM) of 0.664 and a relative viability (NCI-H1734; first compound 0.8 µM) of 0.68. For the same molecule, the relative viability (NCI-H1734; first compound 2.53 µM) was 0.744 and the relative viability (NCI-H1734; first compound 8 µM) was 0.769.
